Assay results reported in patent US5451506A, “Oncostatin M and novel compositions having anti-neoplastic activity” (Oncogen Limited Partnership, priority 1993, dated 1995).

T1: Oncostatin M receptor on A375 or A549 cells (Homo sapiens, UniProt P40189+Q99650)
T1 construct: endogenous in cells; host or cells: A375 or A549 cells (intact monolayers)
T1 sequence (Q99650 28-979): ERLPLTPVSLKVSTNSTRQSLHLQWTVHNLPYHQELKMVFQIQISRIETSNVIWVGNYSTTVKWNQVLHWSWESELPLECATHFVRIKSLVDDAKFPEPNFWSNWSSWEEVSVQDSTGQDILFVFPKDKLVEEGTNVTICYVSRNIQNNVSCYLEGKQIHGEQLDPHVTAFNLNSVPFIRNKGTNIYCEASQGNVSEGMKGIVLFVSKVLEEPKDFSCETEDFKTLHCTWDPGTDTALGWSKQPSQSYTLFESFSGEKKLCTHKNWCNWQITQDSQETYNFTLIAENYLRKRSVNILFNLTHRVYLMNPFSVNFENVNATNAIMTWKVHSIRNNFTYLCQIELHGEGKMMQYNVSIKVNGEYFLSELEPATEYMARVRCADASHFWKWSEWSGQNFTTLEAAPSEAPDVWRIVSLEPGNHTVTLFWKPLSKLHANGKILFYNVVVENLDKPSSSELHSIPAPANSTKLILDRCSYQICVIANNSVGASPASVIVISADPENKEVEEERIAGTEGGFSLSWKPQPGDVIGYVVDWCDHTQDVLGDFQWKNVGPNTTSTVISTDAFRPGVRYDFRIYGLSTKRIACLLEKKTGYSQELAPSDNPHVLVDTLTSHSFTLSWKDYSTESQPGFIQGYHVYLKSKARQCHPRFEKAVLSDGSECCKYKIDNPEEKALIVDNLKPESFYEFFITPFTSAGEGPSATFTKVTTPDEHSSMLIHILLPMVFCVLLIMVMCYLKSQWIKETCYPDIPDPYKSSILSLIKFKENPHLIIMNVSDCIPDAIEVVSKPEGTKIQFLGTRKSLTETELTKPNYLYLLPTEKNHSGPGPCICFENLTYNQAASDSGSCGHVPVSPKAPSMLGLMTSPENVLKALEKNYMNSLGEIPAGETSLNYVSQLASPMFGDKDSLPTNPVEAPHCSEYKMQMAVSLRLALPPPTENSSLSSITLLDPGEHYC
T1 sequence (P40189 23-918): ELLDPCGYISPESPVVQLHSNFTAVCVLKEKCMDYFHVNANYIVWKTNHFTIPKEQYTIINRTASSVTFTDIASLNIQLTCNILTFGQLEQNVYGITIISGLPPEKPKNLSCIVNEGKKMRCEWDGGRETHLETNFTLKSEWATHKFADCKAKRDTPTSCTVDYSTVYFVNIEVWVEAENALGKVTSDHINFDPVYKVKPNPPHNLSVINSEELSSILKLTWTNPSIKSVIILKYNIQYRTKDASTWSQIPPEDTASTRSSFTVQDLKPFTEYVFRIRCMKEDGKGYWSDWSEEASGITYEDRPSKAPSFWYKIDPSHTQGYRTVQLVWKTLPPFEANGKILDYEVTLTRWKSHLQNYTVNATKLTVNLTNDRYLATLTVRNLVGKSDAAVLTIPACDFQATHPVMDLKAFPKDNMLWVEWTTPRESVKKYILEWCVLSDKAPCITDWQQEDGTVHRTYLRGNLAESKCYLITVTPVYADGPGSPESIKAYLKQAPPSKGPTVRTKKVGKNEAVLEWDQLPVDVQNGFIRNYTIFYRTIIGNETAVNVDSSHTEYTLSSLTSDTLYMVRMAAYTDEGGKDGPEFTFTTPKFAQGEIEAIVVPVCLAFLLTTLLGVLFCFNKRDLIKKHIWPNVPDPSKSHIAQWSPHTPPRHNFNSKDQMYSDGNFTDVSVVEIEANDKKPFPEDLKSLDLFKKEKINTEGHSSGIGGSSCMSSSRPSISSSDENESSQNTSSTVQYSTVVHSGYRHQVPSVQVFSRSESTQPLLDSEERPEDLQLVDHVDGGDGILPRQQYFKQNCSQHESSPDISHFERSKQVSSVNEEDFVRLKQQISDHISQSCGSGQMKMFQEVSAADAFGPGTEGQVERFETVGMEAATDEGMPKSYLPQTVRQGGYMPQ


Columns and labels:
[1] = system: A375 melanoma cells; test: Cell growth modulatory assay using 3H-thymidine incorporation into DNA (GIA); type: cell-based, human; set-up: Observed % Inhibition of 3H-TdR Incorporation: concentration or dose not given beside the values; conditions: A375 Cells
Protocol: (§1) The assays were performed in 96 flat well plates (Costar 3596). Human melanoma cells (A375) (3×10^3 /100 μl) or cells from another cell line of interest were at an appropriate cell density used. Cells in 100 μl growth medium were placed in each well. Three hours later, 100 μl of test sample in growth medium was added to each well. Plates were incubated at 37° C. for 3 days. Then 25 μl (0.5 μCi) of a solution of ^3 H-thymidine (specific activity 27 μCi/μg) was added to each well for the final 6 hours of incubation. The cells were then transferred to glass filter strips using a multiwell harvester (PHD Cell Harvester, Cambridge Technology, Inc.). The filters were transferred to scintillation vials. Two ml of scintillation fluid (ScientiVerse II, Fisher Scientific Co.) was added and the samples counted in a scintillation counter to quantitate ^3 H-thymidine incorporation.

[2] = system: MCF-7 breast tumor cells; test: Inhibition of 3H-TdR incorporation, Oncostatin M and TNF-α; type: cell-based, human; conditions: MCF-7 Cells
Protocol: as §1
Inhibition of ^3 H-TdR incorporation into A375 cells and MCF-7 cells were compared using the assay described in Example 1B, above. The cells were treated with either Oncostatin M alone, TNF-α (Amgen Biologicals, human recombinant TNF-α) alone, or with a combination of Oncostatin M and TNF-α.

[3] = target: T1, Oncostatin M receptor on A375 or A549 cells; test: Specificity of Oncostatin M receptor: competition for binding of 125I-Oncostatin M; conditions: competitor 20 μg/ml; 125I-Oncostatin M 30-50 ng/ml
Protocol: The cell line of interest was plated in 48-well plates at a density of 2×10^5 cells/well and maintained at 37° C. for 16-24 hours before initiation of the assay. Cell monolayers were then washed once with Binding buffer (Linsley et al., Biochemistry (1986) 25:2978-2986). To measure total binding, ^125 I-Oncostatin M was added at concentrations ranging from 0.5-100 ng/ml. To measure non-specific binding, unlabeled Oncostatin M was added simultaneously with the ^125 I-Oncostatin M to replicate plates at a concentration 20- to 100-fold higher than the concentration of ^125 I-Oncostatin M. Binding was allowed to proceed for 2-5 hours at 23°, then the monolayers were washed four times with Binding Buffer, cell-bound radioactivity was solubilized with 1N NaOH and was counted in a gamma counter. Specific binding was calculated by subtracting the non-specific binding from total binding. The dissociation constant (Kd) and binding capacity was determined by Scatchard analysis (Scatchard, Ann. N.Y. Acad. Sci. (1949) 51:660).
The specificity of the Oncostatin M receptor was determined by evaluating the ability of several other polypeptide growth factors to compete for binding of ^125 I-Oncostatin M (at 30-50 ng/ml) to A375 or A549 cells.

[4] = system: WI26 fibroblasts; test: Cell growth modulatory assay using 3H-thymidine incorporation into DNA (GIA); type: cell-based, human; conditions: 1000 GIA units/ml
Protocol: as §1
Human tumor cells (A375 melanoma cells, A549 lung cancer cells, HBT10 neuroblastoma cells, and SK-MEL28 melanoma cells) were seeded at 3×10^3 cells/well and normal fibroblasts (WI26 cells and WI38 cells) at 1.5×10^3 cells/well in 96-well plates. Various concentrations of purified Oncostatin M, obtained from the fraction from the C18^3 column with peak antiproliferative activity against A375 cells were used. The assay was performed as described in Example 1B above.

[5] = system: Mouse L929 cells; test: Effect on mouse L929 cells; type: cell-based; conditions: up to 1000 GIA units/ml
Protocol: (§2) The ability of PBL-derived Oncostatin M to affect replication of a variety of cells was also investigated. Mouse L929 cells were insenstive to PBL-derived Oncostatin M using up to 1000 GIA units/ml. Growth of human fibroblasts, WI26, was stimulated by treatment with 1000 GIA units/ml. Normal human T-lymphocyte proliferation at 72 hours post mitogenesis was not affected by up to 500 GIA units/ml.

[6] = system: Normal human T-lymphocyte; test: Normal human T-lymphocyte proliferation post mitogenesis; type: cell-based; conditions: 72 hours post mitogenesis, up to 500 GIA units/ml
Protocol: as §2

Molecule | Observed % Inhibition of 3H-TdR Incorporation [1] [%] | Observed % Inhibition of 3H-TdR Incorporation [2] [%] | Inhibitory activity towards binding of 125I-Oncostatin M [3] | Growth of human fibroblasts WI26 [4] | Replication of mouse L929 cells [5] | Normal human T-lymphocyte proliferation [6]
TNF-α | 7 | 30 | None of these showed significant inhibitory activity | – | – | –
PBL-derived Oncostatin M: Oncostatin M isolated from conditioned medium of activated human T-lymphoblasts, approximately 80% pure (protein, UniProt P13725 26-221, looked up) Oncostatin-M: AAIGSCSKEYRVLLGQLQKQTDLMQDTSRLLDPYIRIQGLDVPKLREHCRERPGAFPSEETLRGLGRRGFLQTLNATLGCVLHRLADLEQRLPKAQDLERSGLNIEDLEKLQMARPNILGLRNNIYCMAQLLDNSDTAEPTKAGRGASQPPTPTPASDAFQRKLEGCRFLHGYHRFMHSVGRVFSKWGESPNRSRR | – | – | – | stimulated | insenstive | not affected
